According to US9725412B2, “Polymorphic forms of perindopril (L)-arginine and process for the preparation thereof” (Mylan Laboratories Limited, priority 2008, dated 2017):

Tests used:
[1] = Solid state stability at accelerated stress conditions (40° C./75% relative humidity); assay type: physicochemical; details: 40° C./75% RH
Description: The present invention is to provide Perindopril (L)-Arginine (γ) form having the degree of crystallinity under 60%, which has enhanced stability to heat and humidity. According to the present invention, the obtained Perindopril (L)-Arginine (γ) form is subjected to accelerated stability at 40° C. and relative humidity (RH) 75%.
The samples were tested by PXRD, Karl-Fisher titrator and HPLC for final purity and degradation products.

[2] = Hygroscopic studies at different relative humidities; assay type: physicochemical; details: stored in different relative humidities for 1 to 3 months
[3] = Physical stability on drying and at humidity (RH >90%), by PXRD and Karl-Fisher; assay type: physicochemical
Description: The physical stability of the amorphous form, Form γ and literature Form α of Perindopril (L)-Arginine was determined by storing approximately 3.0 g of the sample a) at 50° C., b) at 70° C., c) at 100° C. and d) at 90% Relative Humidity (RH). […]

[4] = Transformation kinetics: solvent-mediated polymorph transformation (slurry in solvents, PXRD); assay type: physicochemical; details: for Result (polymorphic form by PXRD after slurry): stirred 12 hours; for Form conversion or dissociation: slurry in heptane; for Form conversion: stirred in toluene or acetonitrile for more than 15 hrs at room temperature
Description: Solvent-mediated polymorph transformations are an effective method to measure the physical stability for both metastable and thermodynamically stable polymorphs. This study is carried out by slurring 1 g of Form γ, amorphous and literature Form α of Perindopril (L)-Arginine salt in different solvents at 25 to 30° C. for several hours. The solid samples are then characterized by PXRD (example 10, Table 6).
1 g of Perindopril (L)-Arginine salt is suspended in appropriate solvents at different temperature and stirred for 12 hours to afford form γ of Perindopril (L)-Arginine.

[5] = tablets, temperate-climate countries; cited from earlier work

For `CCC[C@H](N[C@@H](C)C(=O)N1[C@H](C(=O)O)C[C@@H]2CCCC[C@@H]21)C(=O)OCC.N=C(N)NCCC[C@H](N)C(=O)O` [Form γ, Perindopril (L)-Arginine], the PXRD ([1]; After 1 month) was “Same as initial”, the “Purity (%) (HPLC)” value ([1]; After 1 month) was 99.2% and the “m/c (%) (moisture content, Karl-Fisher)” value ([1]; After 1 month) was 4.4%. For the same compound, the PXRD ([1]; After 2 months) was “Same as initial”, the “Purity (%) (HPLC)” value ([1]; After 2 months) was 99.1% and the “m/c (%) (moisture content, Karl-Fisher)” value ([1]; After 2 months) was 5.0%. For the same compound, the PXRD ([1]; After 15 days) was “Same as initial”, the “Purity (%) (HPLC)” value ([1]; After 15 days) was 99.2% and the “m/c (%) (moisture content, Karl-Fisher)” value ([1]; After 15 days) was 4.2%. The PXRD ([1]; Initial) was “Form γ”, the “Purity (%) (HPLC)” value ([1]; Initial) was 99.1% and the “m/c (%) (moisture content, Karl-Fisher)” value ([1]; Initial) was 3.8%. For the same compound, the “Chemical and physical stability” value ([1]; accelerated stability) was “chemically and physically very stable”, the “Degradation in HPLC” value ([1]; accelerated stability) was “no degradation” and the “Increase in moisture content” value ([1]; accelerated stability) was “no substantial increase”. The “Increase in moisture content” value [2] was “no substantial increase in moisture content”, the “Results (polymorphic form by PXRD)” value ([3]; Drying at 70° C., 3 days) was “Form γ” and the “Results (polymorphic form by PXRD)” value ([3]; Drying at 100° C., 7 days) was “Form γ”. For the same compound, the “Results (polymorphic form by PXRD)” value ([3]; Humidity (RH >90%), 15 hrs) was “Form γ”, the Change in form ([3]; both drying and humid conditions) was “no change in form” and the “Result (polymorphic form by PXRD after slurry)” value ([4]; ACN, volume 10, 80 ° C.) was “Form v”. The “Result (polymorphic form by PXRD after slurry)” value ([4]; Toluene, volume 10, 110 ° C.) was “Form γ”, the Relative thermodynamic stability ([4]; conclusion from stability and slurry observations) was “thermodynamically more stable than Perindopril (L)-Arginine amorphous and form α” and the “Result (polymorphic form by PXRD after slurry)” value ([4]; n-heptane, volume 10, 60-80 ° C.) was “Form γ”. For the same compound, the “Form conversion or dissociation” value [4] was “No discernible form conversion or dissociation”.

In the case of `CCC[C@H](N[C@@H](C)C(=O)N1[C@H](C(=O)O)C[C@@H]2CCCC[C@@H]21)C(=O)OCC.N=C(N)NCCC[C@H](N)C(=O)O` [Amorphous, Perindopril (L)-Arginine], the “Results (polymorphic form by PXRD)” value ([3]; Drying at 25° C., 3 hrs) was “Form γ”, the “Results (polymorphic form by PXRD)” value ([3]; Humidity (RH >90%), 3 hrs) was “Form γ” and the “Results (polymorphic form by PXRD)” value ([3]; Humidity (RH >90%), 3 hrs, listed as amorphous Perindopril Arginine salt) was “polymorphic form γ”. For the same compound, the Change in form ([3]; in humidity) was “converted to Form γ”, the “Result (polymorphic form by PXRD after slurry)” value ([4]; ACN, volume 10, 25-30 ° C.) was “Form γ” and the Form conversion [4] was “converted to form γ”.

In the case of `CC(C)(C)N.CCC[C@H](N[C@@H](C)C(=O)N1[C@H](C(=O)O)C[C@@H]2CCCC[C@@H]21)C(=O)OCC` [Perindopril tert-butylamine salt], the Shelf-life [5] is listed as ≤ 2 years.

With `CCC[C@H](N[C@@H](C)C(=O)N1[C@H](C(=O)O)C[C@@H]2CCCC[C@@H]21)C(=O)OCC.N=C(N)NCCC[C@H](N)C(=O)O` [Form α, Perindopril (L)-Arginine] the “Results (polymorphic form by PXRD)” value ([3]; Drying at 70° C., 3 days) was “Form α”, the “Results (polymorphic form by PXRD)” value ([3]; Drying at 100° C., 7 days) was “Form α” and the “Results (polymorphic form by PXRD)” value ([3]; Humidity (RH >90%), 15 hrs) was “Form γ”. The Change in form ([3]; in humidity) was “converted to Form γ”, the “Result (polymorphic form by PXRD after slurry)” value ([4]; ACN, volume 5, 25-30 ° C.) was “Form γ” and the “Result (polymorphic form by PXRD after slurry)” value ([4]; ACN, volume 5, 70-80 ° C.) was “Form γ”. For the same compound, the “Result (polymorphic form by PXRD after slurry)” value ([4]; Toluene, volume 5, 25-30 ° C.) was “Form γ”, the “Result (polymorphic form by PXRD after slurry)” value ([4]; n-heptane, volume 5, 25-30 ° C.) was “Form α” and the “Form conversion or dissociation” value [4] was “No discernible form conversion or dissociation”. For the same compound, the Form conversion [4] was “converted to form γ”.
